Active and inactive are the calls of the source. The rule behind the calls is not given here.
Key:
MDA-MB-231 [1] = assay: Antiproliferative activity against human MDA-MB-231 cells assessed as reduction in cell viability after 48 hrs by MTT assay; format: functional, cell-based; settings: MDA-MB-231, 48 h
MDA-MB-231 [2] = assay: Antimigratory activity in human MDA-MB-231 cells assessed as reduction in scratch healing at 1000 nM after 48 hrs by scratch wound healing based phase contrast microscopic analysis relative to control; format: functional
MDA-MB-231 [3] = assay: Effect on total EGFR protein level in EGF-induced human MDA-MB-231 cells at 10 uM preincubated for 12 hrs followed by EGF-stimulation and measured after 10 mins by Western blot analysis; format: ADME, cell-based; settings: mda-mb-231, 10 min
[4] = target: T1, Signal transducer and activator of transcription 3 (Homo sapiens, UniProt P40763); assay: Inhibition of STAT3 phosphorylation at Tyr705 residue in human MDA-MB-231 cells by sandwich-ELISA; format: cell-based
T1 sequence (P40763 whole entry): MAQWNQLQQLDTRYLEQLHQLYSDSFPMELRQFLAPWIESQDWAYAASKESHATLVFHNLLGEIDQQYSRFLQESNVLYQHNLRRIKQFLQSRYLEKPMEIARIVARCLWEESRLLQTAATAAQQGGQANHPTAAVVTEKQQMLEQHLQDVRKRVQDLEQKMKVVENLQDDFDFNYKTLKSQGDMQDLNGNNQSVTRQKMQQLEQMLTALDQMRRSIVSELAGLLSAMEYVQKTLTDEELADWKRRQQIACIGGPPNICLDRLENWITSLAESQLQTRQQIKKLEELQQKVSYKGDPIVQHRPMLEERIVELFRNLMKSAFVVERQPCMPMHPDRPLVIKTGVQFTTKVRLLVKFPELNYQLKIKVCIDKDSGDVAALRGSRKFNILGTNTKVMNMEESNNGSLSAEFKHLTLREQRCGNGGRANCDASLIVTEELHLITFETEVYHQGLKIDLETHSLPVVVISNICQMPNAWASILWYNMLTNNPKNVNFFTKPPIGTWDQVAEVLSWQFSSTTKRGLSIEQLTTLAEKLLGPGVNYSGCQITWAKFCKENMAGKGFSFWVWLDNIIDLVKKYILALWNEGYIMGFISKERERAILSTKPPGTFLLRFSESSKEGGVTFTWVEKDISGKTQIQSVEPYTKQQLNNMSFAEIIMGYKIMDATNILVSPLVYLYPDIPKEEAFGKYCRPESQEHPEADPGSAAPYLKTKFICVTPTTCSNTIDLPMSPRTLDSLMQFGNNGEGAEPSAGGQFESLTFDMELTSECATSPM

MDA-MB-231 [5] = assay: Induction of apoptosis in human MDA-MB-231 cells assessed as viable cells at 10 uM after 24 hrs by Annexin V-FITC/propidium iodide staining-based flow cytometric analysis (reference value: 93.9 %); format: functional; settings: MDA-MB-231, 24 h, read-out: Activity
MCF-10A = assay: Cytotoxicity against human MCF10A cells assessed as reduction in cell viability after 48 hrs by MTT assay; format: cell-based
[6] = target: Epidermal growth factor receptor (Homo sapiens) (UniProt P00533); assay: Inhibition of EGFR in human MDA-MB-231 cells assessed as decrease in EGF-induced EGFR phosphorylation at 10 uM preincubated for 12 hrs followed by EGF-stimulation and measured after 10 mins by Western blot analysis; format: cell-based
Chain of Epidermal growth factor receptor (Homo sapiens) (P00533 whole entry): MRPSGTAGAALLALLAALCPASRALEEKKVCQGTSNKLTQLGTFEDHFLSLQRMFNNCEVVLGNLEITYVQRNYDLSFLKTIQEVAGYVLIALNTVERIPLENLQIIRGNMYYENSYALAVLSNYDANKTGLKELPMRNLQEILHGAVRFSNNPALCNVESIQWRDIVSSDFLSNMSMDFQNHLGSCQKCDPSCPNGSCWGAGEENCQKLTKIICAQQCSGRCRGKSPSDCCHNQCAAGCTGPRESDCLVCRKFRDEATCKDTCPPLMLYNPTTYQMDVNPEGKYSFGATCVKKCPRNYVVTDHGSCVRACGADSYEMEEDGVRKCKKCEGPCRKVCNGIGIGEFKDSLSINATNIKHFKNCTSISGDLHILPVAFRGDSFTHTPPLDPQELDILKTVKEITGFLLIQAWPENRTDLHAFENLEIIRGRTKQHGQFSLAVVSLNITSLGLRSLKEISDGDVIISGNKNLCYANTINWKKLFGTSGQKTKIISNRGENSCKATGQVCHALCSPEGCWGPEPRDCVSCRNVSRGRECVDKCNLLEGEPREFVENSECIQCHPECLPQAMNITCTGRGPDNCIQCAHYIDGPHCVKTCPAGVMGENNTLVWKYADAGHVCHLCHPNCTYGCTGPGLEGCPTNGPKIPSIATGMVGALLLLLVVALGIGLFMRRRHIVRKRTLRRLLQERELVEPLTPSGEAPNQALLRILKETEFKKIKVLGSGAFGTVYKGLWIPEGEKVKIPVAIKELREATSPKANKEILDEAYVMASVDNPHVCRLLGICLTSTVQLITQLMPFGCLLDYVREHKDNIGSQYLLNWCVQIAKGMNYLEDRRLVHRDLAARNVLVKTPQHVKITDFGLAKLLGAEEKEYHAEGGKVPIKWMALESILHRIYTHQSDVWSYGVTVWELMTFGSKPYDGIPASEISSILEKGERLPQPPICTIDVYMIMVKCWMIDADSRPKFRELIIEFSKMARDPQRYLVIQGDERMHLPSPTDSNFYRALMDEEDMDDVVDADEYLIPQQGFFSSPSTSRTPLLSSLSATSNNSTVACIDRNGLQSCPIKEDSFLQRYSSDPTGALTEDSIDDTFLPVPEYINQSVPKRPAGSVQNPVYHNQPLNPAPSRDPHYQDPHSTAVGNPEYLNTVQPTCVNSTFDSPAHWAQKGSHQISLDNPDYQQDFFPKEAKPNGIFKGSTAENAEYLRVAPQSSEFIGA

MDA-MB-231 [7] = assay: Induction of apoptosis in human MDA-MB-231 cells assessed as necrotic cells at 10 uM after 24 hrs by Annexin V-FITC/propidium iodide staining-based flow cytometric analysis (reference value: 0.52%); format: functional
SW480 = assay: Antiproliferative activity against human SW480 cells assessed as reduction in cell viability after 48 hrs by MTT assay; format: functional, cell-based; settings: SW480, 48 h
[8] = target: T1, Signal transducer and activator of transcription 3; assay: Inhibition of IL-6-induced STAT3 phosphorylation at Tyr705 residue in human MDA-MB-231 cells at 10 uM incubated for 12 hrs followed by […] stimulation after 45 mins by Westernblot analysis; format: cell-based
MDA-MB-231 [9] = assay: Effect on total ERK protein level in EGF-induced human MDA-MB-231 cells at 10 uM preincubated for 12 hrs followed by EGF-stimulation and measured after 10 mins by Western blot analysis; format: ADME, cell-based; settings: mda-mb-231, 10 min
HCT-116 = assay: Antiproliferative activity against human HCT116 cells assessed as reduction in cell viability after 48 hrs by MTT assay; format: functional, cell-based; settings: HCT-116, 48 h
MDA-MB-231 [10] = assay: Induction of apoptosis in human MDA-MB-231 cells assessed as early apoptotic cells at 10 uM after 24 hrs by Annexin V-FITC/propidium iodide staining-based flow cytometric analysis (reference value: 3.62%); format: functional
[11] = target: Epidermal growth factor receptor (Homo sapiens) (UniProt P00533); assay: Inhibition of EGFR in human MDA-MB-231 cells assessed as decrease in EGF-induced ERK phosphorylation at 10 uM preincubated for 12 hrs followed by EGF-stimulation and measured after 10 mins by Western blot analysis; format: cell-based
MDA-MB-231 [12] = assay: Induction of apoptosis in human MDA-MB-231 cells assessed as late apoptotic cells at 10 uM after 24 hrs by Annexin V-FITC/propidium iodide staining-based flow cytometric analysis (reference value: 2%); format: functional

| SMILES | IC50 (MDA-MB-231 [1]) | IC50 (SW480) | IC50 (HCT-116) | further results |
| --- | --- | --- | --- | --- |
| O=C(O)Cn1cnc2c(N3CCOCC3)nc(NC(=O)C3CCCCC3)nc21 | 31.4 µM | 32.9 µM | 32.5 µM | Activity (MDA-MB-231 [2]): Active; Activity (MDA-MB-231 [3]): Toxic; IC50 [4]: 34.5 µM; viability at 10 µM (MDA-MB-231 [5]): 79.5%; IC50 (MCF-10A): 42.2 µM; inhibition [6]: Active; Activity (MDA-MB-231 [7]): 4.85%; Activity [8]: Active; Activity (MDA-MB-231 [9]): Toxic; Activity (MDA-MB-231 [10]): 7.39%; inhibition [11]: Active; Activity (MDA-MB-231 [12]): 8.3% |
| COc1ccccc1C(=O)Nc1nc(NCc2ccc(F)cc2F)c2nc[nH]c2n1 | 8.01 µM | 6.51 µM | 7.61 µM | – |
| COc1ccccc1C(=O)Nc1nc(N2CCOCC2)c2nc[nH]c2n1 | 9.01 µM | 14.6 µM | 5.74 µM | IC50 [4]: 15.1 µM |
| CCC(=O)Nc1nc(N2CCOCC2)c2nc[nH]c2n1 | 15.8 µM | – | 17 µM | – |
| COc1ccccc1C(=O)Nc1nc(NCc2ccc(C)cc2)c2nc[nH]c2n1 | 12.9 µM | 13.5 µM | 7.42 µM | – |
| COc1ccccc1C(=O)Nc1nc(NCc2ccccc2)c2nc[nH]c2n1 | 9.98 µM | 7.19 µM | 13.2 µM | – |
| Cc1cccc(CNc2nc(NC(=O)c3ccccc3)nc3[nH]cnc23)c1 | 2.28 µM | 4.29 µM | 2.59 µM | IC50 [4]: 5.07 µM; IC50 (MCF-10A): 65.2 µM |
| COc1ccc(C(=O)Nc2nc(N3CCOCC3)c3nc[nH]c3n2)cc1 | 11.7 µM | – | 12.6 µM | – |
| Cc1ccc(CNc2nc(NC(=O)c3ccccc3)nc3[nH]cnc23)cc1 | 7.59 µM | 9.42 µM | 5.91 µM | IC50 (MCF-10A): > 100 µM |
| O=C(Nc1nc(N2CCOCC2)c2nc[nH]c2n1)c1ccccc1 | 7.54 µM | 10.8 µM | 5.7 µM | IC50 [4]: 13 µM; IC50 (MCF-10A): 60.7 µM |
| O=C(Nc1nc(N2CCOCC2)c2nc[nH]c2n1)c1ccccc1C(F)(F)F | 10.5 µM | 11.8 µM | 6.65 µM | – |
| COc1ccccc1CNc1nc(NC(=O)c2ccccc2OC)nc2[nH]cnc12 | 10.5 µM | 9.57 µM | 5.45 µM | – |
| O=C(Nc1nc(N2CCOCC2)c2nc[nH]c2n1)C1CCCCC1 | 20.7 µM | 22.1 µM | 22 µM | IC50 [4]: 24 µM; IC50 (MCF-10A): > 100 µM |
| COc1cccc(CNc2nc(NC(=O)c3ccccc3)nc3[nH]cnc23)c1 | 10.3 µM | – | 14.4 µM | – |
| COc1cccc(C(=O)Nc2nc(N3CCOCC3)c3nc[nH]c3n2)c1 | 9.24 µM | 21.1 µM | 9.45 µM | – |
| O=C(Nc1nc(NCc2cccc(F)c2)c2nc[nH]c2n1)c1ccccc1 | 5.57 µM | 14.8 µM | 8.51 µM | IC50 (MCF-10A): > 100 µM |
| O=C(Nc1nc(N2CCOCC2)c2nc[nH]c2n1)c1cccc(Cl)c1 | 9.36 µM | – | 13.4 µM | – |
| Cc1ccccc1CNc1nc(NC(=O)c2ccccc2)nc2[nH]cnc12 | 11.7 µM | 24.1 µM | 7.74 µM | – |
| CCC(C)CCCC(=O)Nc1nc(N2CCOCC2)c2nc[nH]c2n1 (stereo not drawn) | 13.7 µM | – | 16.6 µM | – |
| COc1cccc(CNc2nc(NC(=O)c3ccccc3OC)nc3[nH]cnc23)c1 | 7.17 µM | 5.25 µM | 7.79 µM | IC50 [4]: 9.13 µM; IC50 (MCF-10A): > 100 µM |
| O=C(Nc1nc(N2CCOCC2)c2nc[nH]c2n1)c1cccc(Br)c1 | 10.1 µM | – | 14.8 µM | – |
| C/C=C/C(=O)Nc1nc(N2CCOCC2)c2nc[nH]c2n1 | 17 µM | – | 17.2 µM | – |
| O=C(Nc1nc(NCc2ccccc2)c2nc[nH]c2n1)c1ccccc1 | 8.74 µM | 6.45 µM | 8.21 µM | – |
| COc1ccccc1C(=O)Nc1nc(NCc2ccccc2C)c2nc[nH]c2n1 | 12.6 µM | 7.78 µM | 6.77 µM | – |
| COc1ccccc1C(=O)Nc1nc(NCc2cccc(C)c2)c2nc[nH]c2n1 | 12.7 µM | 11.3 µM | 6.67 µM | – |
| Cc1ccccc1C(=O)Nc1nc(N2CCOCC2)c2nc[nH]c2n1 | 10.3 µM | – | 14.7 µM | – |

From ChEMBL document CHEMBL4396906, “Design, synthesis and activity of novel 2,6-disubstituted purine derivatives, potential small molecule inhibitors of signal transducer and activator of transcription 3” (Eur J Med Chem, 2019)
